Where two headings read alike, the source gives them in different places. Where only a bound is given, the exact number is not on record here.

Experiment [1] has as its system IRF pathway, THP1-Dual™ cells. The experiment can be described thus: STING reporter assay in THP1-Dual cells, IRF pathway (Lucia luciferase, QUANTI-Luc). The following applies: THP1-Dual cells, 10% human plasma, 20 hours, Lucia luciferase, 100% activation = 100 μM cGAMP, read-out: IRF (EC50 μM). It counts as cell-based, human. In outline:
(§1)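 Activation normalised between DMSO-only baseline and 100 μM cGAMP maximum, after 20 h compound exposure (starting at 100 μM final) at 37° C, 5% CO2. Supernatant SEAP (QUANTI-Blue, OD620) reports NF-κB; secreted luciferase (QUANTI-Luc, RLU at 5 min) reports IRF.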
On the technique in general: In a reporter assay the amount or activity of a reporter protein is the signal.

For experiment [2], the system named is NF-κB pathway, THP1-Dual™ cells. The experiment can be described thus: STING reporter assay in THP1-Dual cells, NF-κB pathway (SEAP, QUANTI-Blue). The class given is cell-based, human. The following applies: THP1-Dual cells, 10% human plasma, 20 hours, SEAP, 100% activation = 100 μM cGAMP, read-out: NFkB (EC50 μM). In outline:
as §1

Turning to `COC(=O)c1cc(Cl)cc2cc(CNC(=O)c3cnn4ccc(C)nc34)oc12` [Example 54, Methyl 5-chloro-2-((5-methylpyrazolo[1,5-a]pyrimidine-3-carboxamido)methyl) benzofuran-7-carboxylate], the EC50 in experiment [1] and in experiment [2] was 2.6 µM each time.

For the compound `COC(=O)c1cc(Cl)cc2cc(CNC(=O)c3cnn4cc(C)cnc34)oc12` [Example 55, Methyl 5-chloro-2-((6-methylpyrazolo[1,5-a]pyrimidine-3-carboxamido)methyl) benzofuran-7-carboxylate], the EC50 in experiment [1] and in experiment [2] was 1.1 µM throughout.

In the case of `COC(=O)c1cc(Cl)cc2cc(CNC(=O)c3cnn4c(C)ccnc34)oc12` [Example 56, Methyl 5-chloro-2-((7-methylpyrazolo[1,5-a]pyrimidine-3-carboxamido)methyl) benzofuran-7-carboxylate], the EC50 in experiment [1] is 30 µM; in experiment [2] it was > 33 µM.

On to `COC(=O)c1cc(Cl)cc2cc(CNC(=O)c3cnn4cc(Cl)cnc34)oc12` [Example 57, Methyl 5-chloro-2-((6-chloropyrazolo[1,5-a]pyrimidine-3-carboxamido)methyl) benzofuran-7-carboxylate], for which the EC50 in experiment [1] amounted to 9.5 µM; in experiment [2], 8.1 µM.

As for `COC(=O)c1cc(Cl)cc2cc(CNC(=O)c3cnccn3)oc12` [Example 58, Methyl 5-chloro-2-((pyrazine-2-carboxamido)methyl) benzofuran-7-carboxylate], the concentration giving a half-maximal response (EC50) in experiment [1] worked out at 2.7 µM; in experiment [2], 2.9 µM.

Take `COC(=O)c1cc(Cl)cc2cc(CNC(=O)c3cncc(C)n3)oc12` [Example 59, Methyl 5-chloro-2-((6-methylpyrazine-2-carboxamido)methyl) benzofuran-7-carboxylate]: the EC50 in experiment [1] worked out at 2.4 µM; in experiment [2], 2.6 µM.

`COC(=O)c1cc(Cl)cc2cc(CNC(=O)c3cncc(OC)n3)oc12` [Example 60, Methyl 5-chloro-2-((6-methoxypyrazine-2-carboxamido)methyl) benzofuran-7-carboxylate]: the EC50 in experiment [1] was found to be 7.7 µM; in experiment [2], 8.9 µM.

In the case of `COC(=O)c1cc(Cl)cc2cc(CNC(=O)c3cncc(Cl)n3)oc12` [Example 61, Methyl 5-chloro-2-((6-chloropyrazine-2-carboxamido)methyl) benzofuran-7-carboxylate], the EC50 in experiment [1] and in experiment [2] was 21 µM throughout.

For the compound `COC(=O)c1cc(Cl)cc2cc(CNC(=O)c3cncc(Br)n3)oc12` [Example 62, Methyl 2-((6-bromopyrazine-2-carboxamido)methyl)-5-chlorobenzofuran-7-carboxylate], the EC50 in experiment [1] (Homo sapiens, THP1-Dual, 20 h) came out at 42 µM; in experiment [2] (Homo sapiens, THP1-Dual, 20 h) it was 46 µM.

As for `COC(=O)c1cc(Cl)cc2cc(CNC(=O)c3c(N)nn4cccnc34)oc12` [Example 63, Methyl 2-((2-aminopyrazolo[1,5-a]pyrimidine-3-carboxamido)methyl)-5-chlorobenzofuran-7-carboxylate], the EC50 is 10 µM in experiment [1] (Homo sapiens, THP1-Dual, 20 h) and 16 µM in experiment [2] (Homo sapiens, THP1-Dual, 20 h).

Turning to `CNc1nn2cccnc2c1C(=O)NCc1cc2cc(Cl)cc(C(=O)OC)c2o1` [Example 64, Methyl 5-chloro-2-((2-(methylamino)pyrazolo[1,5-a]pyrimidine-3-carboxamido)methyl)benzofuran-7-carboxylate], the EC50 was 68 µM in experiment [1] (Homo sapiens, THP1-Dual, 20 h) and > 100 µM in experiment [2] (Homo sapiens, THP1-Dual, 20 h).

Regarding `COC(=O)c1cc(Cl)cc2cc(CNC(=O)c3cncn(C)c3=O)oc12` [Example 65, Methyl 5-chloro-2-((1-methyl-6-oxo-1,6-dihydropyrimidine-5-carboxamido)methyl)benzofuran-7-carboxylate], the EC50 in experiment [1] (Homo sapiens, THP1-Dual, 20 h) stood at 3 µM; in experiment [2] (Homo sapiens, THP1-Dual, 20 h), 3.1 µM.

Take `CCn1cncc(C(=O)NCc2cc3cc(Cl)cc(C(=O)OC)c3o2)c1=O` [Example 66, Methyl 5-chloro-2-((1-ethyl-6-oxo-1,6-dihydropyrimidine-5-carboxamido)methyl)benzofuran-7-carboxylate]: the EC50 in experiment [1] (Homo sapiens, THP1-Dual, 20 h) is 28 µM; in experiment [2] (Homo sapiens, THP1-Dual, 20 h) it was 33 µM.

With `CCCn1cncc(C(=O)NCc2cc3cc(Cl)cc(C(=O)OC)c3o2)c1=O` [Example 67, Methyl 5-chloro-2-((1-propyl-6-oxo-1,6-dihydropyrimidine-5-carboxamido)methyl)benzofuran-7-carboxylate], the EC50 in experiment [1] (Homo sapiens, THP1-Dual, 20 h) worked out at 20 µM; in experiment [2] (Homo sapiens, THP1-Dual, 20 h), 32 µM.

For the compound `COC(=O)c1cc(Cl)cc2cc(CNC(=O)c3cncc4[nH]cnc34)oc12` [Example 68, Methyl 2-((3H-imidazo[4,5-c]pyridine-7-carboxamido)methyl)-5-chlorobenzofuran-7-carboxylate], the EC50 is 1.7 µM in experiment [1] (Homo sapiens, THP1-Dual, 20 h) and 2.1 µM in experiment [2] (Homo sapiens, THP1-Dual, 20 h).

In the case of `COC(=O)c1cc(Cl)cc2cc(CNC(=O)c3cncc4c3ncn4C)oc12` [Example 69, Methyl 5-chloro-2-((3-methyl-3H-imidazo[4,5-c]pyridine-7-carboxamido)methyl)benzofuran-7-carboxylate], the EC50 in experiment [1] (Homo sapiens, THP1-Dual, 20 h) came out at 1.3 µM; in experiment [2] (Homo sapiens, THP1-Dual, 20 h), 2.3 µM.

For `COC(=O)c1cc(Cl)cc2cc(CNC(=O)c3cncc4ncn(C)c34)oc12` [Example 70, Methyl 5-chloro-2-((1-methyl-1H-imidazo[4,5-c]pyridine-7-carboxamido)methyl)benzofuran-7-carboxylate], the EC50 is 24 µM in experiment [1] (Homo sapiens, THP1-Dual, 20 h) and > 100 µM in experiment [2] (Homo sapiens, THP1-Dual, 20 h).

For `COC(=O)c1cc(Cl)cc2cc(CNC(=O)c3cncc4[nH]c(C)nc34)oc12` [Example 71, Methyl 5-chloro-2-((2-methyl-3H-imidazo[4,5-c]pyridine-7-carboxamido)methyl)benzofuran-7-carboxylate], the EC50 in experiment [1] (Homo sapiens, THP1-Dual, 20 h) worked out at 24 µM; in experiment [2] (Homo sapiens, THP1-Dual, 20 h) it was 33 µM.

As to `COC(=O)c1cc(Cl)cc2cc(CNC(=O)c3cncc4scnc34)oc12` [Example 72, Methyl 5-chloro-2-((thiazolo[5,4-c]pyridine-7-carboxamido)methyl)benzofuran-7-carboxylate], the EC50 is 1.2 µM in experiment [1] (Homo sapiens, THP1-Dual, 20 h) and 17 µM in experiment [2] (Homo sapiens, THP1-Dual, 20 h).

In the case of `COC(=O)c1cc(Cl)cc2cc(CNC(=O)c3cncnc3OC)oc12` [Example 73, Methyl 5-chloro-2-((4-methoxypyrimidine-5-carboxamido)methyl)benzofuran-7-carboxylate], the EC50 in experiment [1] (Homo sapiens, THP1-Dual, 20 h) came to 2.1 µM; in experiment [2] (Homo sapiens, THP1-Dual, 20 h), 2.6 µM.

Consider `CCOc1ncncc1C(=O)NCc1cc2cc(Cl)cc(C(=O)OC)c2o1` [Example 74, Methyl 5-chloro-2-((4-ethoxypyrimidine-5-carboxamido)methyl)benzofuran-7-carboxylate], for which the EC50 in experiment [1] (Homo sapiens, THP1-Dual, 20 h) was found to be 3.3 µM; in experiment [2] (Homo sapiens, THP1-Dual, 20 h), 3.5 µM.

As for `COC(=O)c1cc(Cl)cc2cc(Cn3ccc4ncncc4c3=O)oc12` [Example 75, Methyl 5-chloro-2-((5-oxopyrido[4,3-d]pyrimidin-6(5H)-yl)methyl)benzofuran-7-carboxylate], the EC50 was determined as 22 µM in experiment [1] (Homo sapiens, THP1-Dual, 20 h) and 37 µM in experiment [2] (Homo sapiens, THP1-Dual, 20 h).

Turning to `COC(=O)c1cc(Cl)cc2cc(Cn3cnc4ccncc4c3=O)oc12` [Example 76, Methyl 5-chloro-2-((4-oxopyrido[4,3-d]pyrimidin-3(4H)-yl)methyl)benzofuran-7-carboxylate], the EC50 in experiment [1] (Homo sapiens, THP1-Dual, 20 h) is 3 µM; in experiment [2] (Homo sapiens, THP1-Dual, 20 h), 4.1 µM.

With `COC(=O)c1cc(Cl)cc2cc(CN3CCc4ccncc4C3=O)oc12` [Example 77, Methyl 5-chloro-2-((1-oxo-3,4-dihydro-2,7-naphthyridin-2(1H)-yl)methyl)benzofuran-7-carboxylate], the EC50 was 5.5 µM in experiment [1] (Homo sapiens, THP1-Dual, 20 h) and 6.3 µM in experiment [2] (Homo sapiens, THP1-Dual, 20 h).

Turning to `COC(=O)c1cc(Cl)cc2cc(Cn3ccc4ccncc4c3=O)oc12` [Example 78, Methyl 5-chloro-2-((1-oxo-2,7-naphthyridin-2(1H)-yl)methyl)benzofuran-7-carboxylate], the concentration giving a half-maximal response (EC50) in experiment [1] (Homo sapiens, THP1-Dual, 20 h) was determined as 3.4 µM; in experiment [2] (Homo sapiens, THP1-Dual, 20 h), 3.7 µM.

`COC(=O)c1cc(Cl)cc2cc([C@H](C)NC(=O)c3cnn4cccnc34)oc12` [Example 79, Methyl (S)-5-chloro-2-(1-(pyrazolo[1,5-a]pyrimidine-3-carboxamido)ethyl)benzofuran-7-carboxylate]: the EC50 is 1.5 µM in experiment [1] (Homo sapiens, THP1-Dual, 20 h) and 1.7 µM in experiment [2] (Homo sapiens, THP1-Dual, 20 h).

Regarding `COC(=O)c1cc(Br)cc2cc(CNC(=O)c3cnn4cccnc34)oc12` [Example 80, Methyl 5-bromo-2-((pyrazolo[1,5-a]pyrimidine-3-carboxamido)methyl)benzofuran-7-carboxylate], the EC50 stood at 0.8 µM in experiment [1] (Homo sapiens, THP1-Dual, 20 h) and 1.1 µM in experiment [2] (Homo sapiens, THP1-Dual, 20 h).

With `COC(=O)c1cc(Br)cc2cc(CN3CCc4ccncc4C3=O)oc12` [Example 81, Methyl 5-bromo-2-((1-oxo-3,4-dihydro-2,7-naphthyridin-2(1H)-yl)methyl)benzofuran-7-carboxylate], the EC50 in experiment [1] (Homo sapiens, THP1-Dual, 20 h) came to 16 µM; in experiment [2] (Homo sapiens, THP1-Dual, 20 h), 22 µM.

For `COC(=O)c1cc(Br)cc2cc(CN3Cc4ccncc4C3=O)oc12` [Example 82, Methyl 5-bromo-2-((3-oxo-1,3-dihydro-2H-pyrrolo[3,4-c]pyridin-2-yl)methyl)benzofuran-7-carboxylate], the EC50 in experiment [1] (Homo sapiens, THP1-Dual, 20 h) was 27 µM; in experiment [2] (Homo sapiens, THP1-Dual, 20 h), 20 µM.

In the case of `COC(=O)c1cc(Br)cc2cc(CN3Cc4ncncc4C3=O)oc12` [Example 83, Methyl 5-bromo-2-((5-oxo-5,7-dihydro-6H-pyrrolo[3,4-d]pyrimidin-6-yl)methyl)benzofuran-7-carboxylate], the EC50 is 37 µM in experiment [1] (Homo sapiens, THP1-Dual, 20 h) and 48 µM in experiment [2] (Homo sapiens, THP1-Dual, 20 h).

A word on the EC50: it is the concentration that produces a half-maximal response.

The values above are taken from patent US12673954B2 (BRISTOL-MYERS SQUIBB COMPANY, priority 2021, dated 2026).
